Results as given in PubChem BioAssay AID2060487 (Molecular Pharmacology Branch, DTP, NCI, 2025).

System: 997537-175-T-J1-PDC complex spheroid viability
Assay: Anticancer human tumor 997537-175-T-J1-PDC patient-derived colon adenocarcinoma cell line growth inhibition [GQUAD]
Settings: for IC50: curve of first compound; for viability, T/C: stronger effect = lower value
In short: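 Multi-cell-type spheroids of tumor cells with HUVEC and mesenchymal stem cells, treated with drug combinations. Concentrations descend in half-log steps from near clinical Cmax, or from 10 microM where Cmax is unknown; viability read-out.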

[1] = second compound 0.0316 µM, first compound 0.000999 µM
[2] = second compound 0.0316 µM, first compound 0.00316 µM
[3] = second compound 0.0316 µM, first compound 0.00999 µM
[4] = second compound 0.0316 µM, first compound 0.0316 µM
[5] = second compound 0.0316 µM, first compound 0.0999 µM
[6] = second compound 0.0316 µM, first compound 0.316 µM
[7] = second compound 0.1 µM, first compound 0.000999 µM
[8] = second compound 0.1 µM, first compound 0.00316 µM
[9] = second compound 0.1 µM, first compound 0.00999 µM
[10] = second compound 0.1 µM, first compound 0.0316 µM
[11] = second compound 0.1 µM, first compound 0.0999 µM
[12] = second compound 0.1 µM, first compound 0.316 µM
[13] = second compound 0.316 µM, first compound 0.000999 µM
[14] = second compound 0.316 µM, first compound 0.00316 µM
[15] = second compound 0.316 µM, first compound 0.00999 µM
[16] = second compound 0.316 µM, first compound 0.0316 µM
[17] = second compound 0.316 µM, first compound 0.0999 µM
[18] = second compound 0.316 µM, first compound 0.316 µM
[19] = second compound 1 µM, first compound 0.000999 µM
[20] = second compound 1 µM, first compound 0.00316 µM
[21] = second compound 1 µM, first compound 0.00999 µM
[22] = second compound 1 µM, first compound 0.0316 µM
[23] = second compound 1 µM, first compound 0.0999 µM
[24] = second compound 1 µM, first compound 0.316 µM
[25] = second compound 3.16 µM, first compound 0.000999 µM
[26] = second compound 3.16 µM, first compound 0.00316 µM
[27] = second compound 3.16 µM, first compound 0.00999 µM
[28] = second compound 3.16 µM, first compound 0.0316 µM
[29] = second compound 3.16 µM, first compound 0.0999 µM
[30] = second compound 3.16 µM, first compound 0.316 µM
[31] = second compound 10 µM, first compound 0.000999 µM
[32] = second compound 10 µM, first compound 0.00316 µM
[33] = second compound 10 µM, first compound 0.00999 µM
[34] = second compound 10 µM, first compound 0.0316 µM
[35] = second compound 10 µM, first compound 0.0999 µM
[36] = second compound 10 µM, first compound 0.316 µM
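Note: spheroids exposed to the agents for 7 days.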
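Throughout, for viability, T/C: 100% = DMSO vehicle control viability.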

`Cc1[nH]c2ccccc2c1CCNCc1ccc(/C=C/C(=O)NO)cc1` + Cc1cnc(CNC(=O)c2c(=O)c3ccc(N4CCCN(C)CC4)nc3n3c2sc2ccccc23)cn1 showed an IC50 (second compound 0.0316 µM) of over 316 nM, an IC50 (second compound 0.1 µM) of over 316 nM and an IC50 (second compound 0.316 µM) of 232 nM. For the same compound, the IC50 (second compound 1 µM) was over 316 nM, the IC50 (second compound 3.16 µM) was 226 nM and the IC50 (second compound 10 µM) was 281 nM. For the same compound, the viability, T/C [1] was 87.7%, the viability, T/C [2] was 99% and the viability, T/C [3] was 98%. The viability, T/C [4] was 80.6%, the viability, T/C [5] was 82.2% and the viability, T/C [6] was 52.7%. For the same compound, the viability, T/C [7] was 98.3%, the viability, T/C [8] was 94.9% and the viability, T/C [9] was 88.9%. It also gave a viability, T/C [10] of 90.5%, a viability, T/C [11] of 80.2% and a viability, T/C [12] of 59.5%. The viability, T/C [13] was 105%, the viability, T/C [14] was 90.7% and the viability, T/C [15] was 88.6%. It also gave a viability, T/C [16] of 84.1%, a viability, T/C [17] of 99.9% and a viability, T/C [18] of 33.9%. For the same compound, the viability, T/C [19] was 76.1%, the viability, T/C [20] was 87.6% and the viability, T/C [21] was 101%. It also gave a viability, T/C [22] of 102%, a viability, T/C [23] of 81.8% and a viability, T/C [24] of 53.1%. The viability, T/C [25] was 96%, the viability, T/C [26] was 100% and the viability, T/C [27] was 103%. The viability, T/C [28] was 81.4%, the viability, T/C [29] was 110% and the viability, T/C [30] was 30.2%. For the same compound, the viability, T/C [31] was 99.2%, the viability, T/C [32] was 108% and the viability, T/C [33] was 92.8%. It also gave a viability, T/C [34] of 94.4%, a viability, T/C [35] of 108% and a viability, T/C [36] of 44.3%.
Work on `COc1ncnc(C2CC2)c1-c1ncc2cnn(Cc3ccc(-c4nc(C(F)(F)F)cn4C(C)C)cc3)c2n1` + Cc1[nH]c2ccc(F)cc2c1-c1nc2c3cccnc3c3ncccc3c2[nH]1 yielded an IC50 (second compound 0.0316 µM) of 9190 nM, an IC50 (second compound 0.1 µM) of over 10000 nM and an IC50 (second compound 0.316 µM) of over 10000 nM. The IC50 (second compound 1 µM) was 9260 nM, the IC50 (second compound 3.16 µM) was 8150 nM and the IC50 (second compound 10 µM) was over 10000 nM. The viability, T/C [4] was 100%, the viability, T/C (second compound 0.0316 µM, first compound 0.1 µM) was 98.9% and the viability, T/C [6] was 103%. It also gave a viability, T/C (second compound 0.0316 µM, first compound 1 µM) of 93.1%, a viability, T/C (second compound 0.0316 µM, first compound 3.16 µM) of 98.8% and a viability, T/C (second compound 0.0316 µM, first compound 10 µM) of 46.2%. The viability, T/C [10] was 100%, the viability, T/C (second compound 0.1 µM, first compound 0.1 µM) was 107% and the viability, T/C [12] was 102%. It also gave a viability, T/C (second compound 0.1 µM, first compound 1 µM) of 96.3%, a viability, T/C (second compound 0.1 µM, first compound 3.16 µM) of 87.9% and a viability, T/C (second compound 0.1 µM, first compound 10 µM) of 70.5%. It also gave a viability, T/C [16] of 104%, a viability, T/C (second compound 0.316 µM, first compound 0.1 µM) of 101% and a viability, T/C [18] of 100%. It also gave a viability, T/C (second compound 0.316 µM, first compound 1 µM) of 96.7%, a viability, T/C (second compound 0.316 µM, first compound 3.16 µM) of 91.8% and a viability, T/C (second compound 0.316 µM, first compound 10 µM) of 50.9%. It also gave a viability, T/C [22] of 91.7%, a viability, T/C (second compound 1 µM, first compound 0.1 µM) of 103% and a viability, T/C [24] of 101%. It also gave a viability, T/C (second compound 1 µM, first compound 1 µM) of 93%, a viability, T/C (second compound 1 µM, first compound 3.16 µM) of 92.8% and a viability, T/C (second compound 1 µM, first compound 10 µM) of 46.8%. For the same compound, the viability, T/C [28] was 83.1%, the viability, T/C (second compound 3.16 µM, first compound 0.1 µM) was 86.5% and the viability, T/C [30] was 87.2%. The viability, T/C (second compound 3.16 µM, first compound 1 µM) was 84.2%, the viability, T/C (second compound 3.16 µM, first compound 3.16 µM) was 76.7% and the viability, T/C (second compound 3.16 µM, first compound 10 µM) was 44.2%. The viability, T/C [34] was 85.3%, the viability, T/C (second compound 10 µM, first compound 0.1 µM) was 87.8% and the viability, T/C [36] was 89.1%. The viability, T/C (second compound 10 µM, first compound 1 µM) was 89.5%, the viability, T/C (second compound 10 µM, first compound 3.16 µM) was 72.9% and the viability, T/C (second compound 10 µM, first compound 10 µM) was 59.6%.
Compound `Cn1ncnc1[C@H]1c2n[nH]c(=O)c3cc(F)cc(c23)N[C@@H]1c1ccc(F)cc1` + Cc1[nH]c2ccc(F)cc2c1-c1nc2c3cccnc3c3ncccc3c2[nH]1 has an IC50 (second compound 0.0316 µM) of over 316 nM, an IC50 (second compound 0.1 µM) of over 316 nM and an IC50 (second compound 0.316 µM) of over 316 nM. It also gave an IC50 (second compound 1 µM) of over 316 nM, an IC50 (second compound 3.16 µM) of over 316 nM and an IC50 (second compound 10 µM) of over 316 nM. It also gave a viability, T/C [1] of 101%, a viability, T/C [2] of 99.5% and a viability, T/C [3] of 104%. It also gave a viability, T/C [4] of 71%, a viability, T/C [5] of 82.5% and a viability, T/C [6] of 83.1%. For the same compound, the viability, T/C [7] was 103%, the viability, T/C [8] was 102% and the viability, T/C [9] was 84.4%. For the same compound, the viability, T/C [10] was 65.1%, the viability, T/C [11] was 106% and the viability, T/C [12] was 96.2%. For the same compound, the viability, T/C [13] was 102%, the viability, T/C [14] was 103% and the viability, T/C [15] was 87.1%. It also gave a viability, T/C [16] of 75.8%, a viability, T/C [17] of 99.7% and a viability, T/C [18] of 93.1%. The viability, T/C [19] was 83.7%, the viability, T/C [20] was 74.6% and the viability, T/C [21] was 91.2%. For the same compound, the viability, T/C [22] was 81.3%, the viability, T/C [23] was 96.5% and the viability, T/C [24] was 87.8%. It also gave a viability, T/C [25] of 84.7%, a viability, T/C [26] of 73.2% and a viability, T/C [27] of 73.3%. For the same compound, the viability, T/C [28] was 70.6%, the viability, T/C [29] was 101% and the viability, T/C [30] was 84.2%. The viability, T/C [31] was 78%, the viability, T/C [32] was 61.3% and the viability, T/C [33] was 89.8%. The viability, T/C [34] was 62.9%, the viability, T/C [35] was 92.5% and the viability, T/C [36] was 95.3%.
With `Cc1[nH]c2ccccc2c1CCNCc1ccc(/C=C/C(=O)NO)cc1` + CN(C)c1ccc(Nc2c3ccc(NC(=O)CCN4CCCC4)cc3nc3cc(NC(=O)CCN4CCCC4)ccc23)cc1 the IC50 (second compound 0.0316 µM) was 301 nM, the IC50 (second compound 0.1 µM) was 253 nM and the IC50 (second compound 0.316 µM) was 252 nM. For the same compound, the IC50 (second compound 1 µM) was 199 nM, the IC50 (second compound 3.16 µM) was over 316 nM and the IC50 (second compound 10 µM) was 237 nM. The viability, T/C [1] was 103%, the viability, T/C [2] was 74.8% and the viability, T/C [3] was 85%. The viability, T/C [4] was 102%, the viability, T/C [5] was 77.2% and the viability, T/C [6] was 48.8%. The viability, T/C [7] was 97.8%, the viability, T/C [8] was 86% and the viability, T/C [9] was 79.2%. For the same compound, the viability, T/C [10] was 94%, the viability, T/C [11] was 78.8% and the viability, T/C [12] was 42.4%. For the same compound, the viability, T/C [13] was 91.5%, the viability, T/C [14] was 81.8% and the viability, T/C [15] was 88%. The viability, T/C [16] was 80.9%, the viability, T/C [17] was 93.3% and the viability, T/C [18] was 41%. For the same compound, the viability, T/C [19] was 88.5%, the viability, T/C [20] was 77.1% and the viability, T/C [21] was 87.5%. For the same compound, the viability, T/C [22] was 80.8%, the viability, T/C [23] was 96.1% and the viability, T/C [24] was 26%. The viability, T/C [25] was 89.5%, the viability, T/C [26] was 74.9% and the viability, T/C [27] was 87.6%. The viability, T/C [28] was 68%, the viability, T/C [29] was 91.6% and the viability, T/C [30] was 55%. It also gave a viability, T/C [31] of 82.3%, a viability, T/C [32] of 56.7% and a viability, T/C [33] of 96.1%. The viability, T/C [34] was 81.1%, the viability, T/C [35] was 98.8% and the viability, T/C [36] was 39%.
